From patent publication US20100113540A1, “Azole and Thiazole Derivatives and Their Use” (ARGENTA DISCOVERY LIMITED, priority 2005, published 2010)
Where a name gives a salt, the structure may show the parent alone.

Molecular target: T1, M3 muscarinic receptor (Homo sapiens, UniProt P20309)
T1 construct: purchased
Assay: Muscarinic receptor radioligand binding assay ([3H]-NMS), M3
Details: cell membranes expressing human M3 receptor
Experimental: The inhibitory effects of compounds of the present invention at the M3 muscarinic receptor and (in the case of Example 77) the β2 adrenergic receptor, were determined by the following binding assays:
Radioligand binding studies utilising [^3H]-N-methyl scopolamine ([^3H]-NMS) and commercially available cell membranes expressing the human muscarinic receptors (M2 and M3) were used to assess the affinity of muscarinic antagonists for M2 and M3 receptors. Membranes in TRIS buffer were incubated in 96-well plates with [^3H]-NMS and M3 antagonist at various concentrations for 3 hours. Membranes and bound radioligand were then harvested by filtration and allowed to dry overnight. Scintillation fluid was then added and the bound radioligand counted using a Can berra Packard Topcount scintillation counter

T1 sequence (P20309 whole entry): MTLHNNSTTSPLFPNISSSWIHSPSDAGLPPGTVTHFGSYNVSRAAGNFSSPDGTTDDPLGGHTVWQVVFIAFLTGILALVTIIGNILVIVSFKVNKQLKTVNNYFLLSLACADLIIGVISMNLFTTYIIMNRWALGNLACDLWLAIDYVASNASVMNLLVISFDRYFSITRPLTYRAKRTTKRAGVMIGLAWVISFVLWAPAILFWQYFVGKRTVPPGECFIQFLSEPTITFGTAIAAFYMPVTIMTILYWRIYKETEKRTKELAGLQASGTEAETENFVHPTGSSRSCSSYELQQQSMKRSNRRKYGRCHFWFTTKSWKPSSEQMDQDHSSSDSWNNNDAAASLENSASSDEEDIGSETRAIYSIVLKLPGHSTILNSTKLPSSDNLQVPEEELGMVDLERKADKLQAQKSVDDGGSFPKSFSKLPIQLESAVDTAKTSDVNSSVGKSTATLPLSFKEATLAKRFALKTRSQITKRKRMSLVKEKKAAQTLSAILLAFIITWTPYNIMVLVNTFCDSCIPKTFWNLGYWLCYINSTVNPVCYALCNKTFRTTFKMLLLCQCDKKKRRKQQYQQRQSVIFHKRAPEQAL

| SMILES | Ki [nM] |
| --- | --- |
| CN(C)Cc1cnc([C@@](O)(c2ccccc2)C2CCCCC2)o1 (single isomer, unassigned) [Example 5] | > 10 |
| CN(C)Cc1cnc([C@](O)(c2ccccc2)C2CCCCC2)o1 (single isomer, unassigned) [Example 6] | < 1 |
| CN(CCCOc1ccccc1)Cc1cnc([C@@](O)(c2ccccc2)C2CCCCC2)o1 (single isomer, unassigned) [Example 14] | > 10 |
| CN(CCCOc1ccccc1)Cc1cnc([C@](O)(c2ccccc2)C2CCCCC2)o1 (single isomer, unassigned) [Example 15] | 1 to 10 |
| CN(Cc1ccccc1)Cc1cnc([C@](O)(c2ccccc2)C2CCCC2)o1 (single isomer, unassigned) [Example 28, {5-[(Benzyl-methyl-amino)-methyl]-oxazol-2-yl}-cyclopentyl-phenyl-methanol] | > 10 |
| CN(Cc1ccccc1)Cc1cnc([C@@](O)(c2ccccc2)C2CCCC2)o1 (single isomer, unassigned) [Example 29, {5-[(Benzyl-methyl-amino)-methyl]-oxazol-2-yl}-cyclopentyl-phenyl-methanol] | > 10 |
| CN(C)CCc1cnc(C(O)(c2ccccc2)C2CCCCC2)o1 (single isomer, unassigned) [Example 66] | 1 to 10 |
| CN(C)CCc1cnc(C(O)(c2ccccc2)C2CCCCC2)o1 (single isomer, unassigned) [Example 67] | < 1 |
| C[N+](C)(CCCOc1ccccc1)CCc1cnc(C(O)(c2ccccc2)C2CCCCC2)o1 (single isomer, unassigned) [Example 68, {2-[2-(Cyclohexyl-hydroxy-phenyl-methyl)-oxazol-5-yl]-ethyl}-dimethyl-(3-phenoxy-propyl)-ammonium bromide] | 1 to 10 |
| C[N+](C)(CCCOc1ccccc1)CCc1cnc(C(O)(c2ccccc2)C2CCCCC2)o1 (single isomer, unassigned) [Example 69, {2-[2-(Cyclohexyl-hydroxy-phenyl-methyl)-oxazol-5-yl]-ethyl}-dimethyl-(3-phenoxy-propyl)-ammonium bromide] | < 1 |
| C[N+](C)(CCCOc1ccccc1)Cc1cnc([C@@](O)(c2ccccc2)C2CCCC2)o1 (stereo in doubt) [Example 36, [2-(Cyclopentyl-hydroxy-phenyl-methyl)-oxazol-5-ylmethyl]-dimethyl-(3-phenoxy-propyl)-ammonium bromide] | < 1 |
| C[N+](C)(Cc1ccccc1)Cc1cnc([C@@](O)(c2ccccc2)C2CCCC2)o1 (stereo in doubt) [Example 60, Benzyl-[2-(cyclopentyl-hydroxy-phenyl-methyl)-oxazol-5-ylmethyl]-dimethyl-ammonium bromide] | > 10 |
| CN(C)Cc1cnc(C(O)(c2ccccc2)c2ccccc2)o1 [Example 1, (5-Dimethylaminomethyl-oxazol-2-yl)-diphenyv-methanol] | 1 to 10 |
| C[N+](C)(CCCOc1ccccc1)Cc1cnc(C(O)(c2ccccc2)c2ccccc2)o1 [Example 2, [2-(Hydroxy-diphenyl-methyl)-oxazol-5-ylmethyl]-dimethyl-(3-phenoxy-propyl)-ammonium formate] | < 1 |
| CN(C)Cc1cnc(C(O)(c2ccccc2)C2CCCCC2)o1 (stereo not shown) [Example 4, Cyclohexyl-(5-dimethylaminomethyl-oxazol-2-yl)-phenyl-methanol] | < 1 |
| C[N+](C)(CCCOc1ccccc1)Cc1cnc([C@@](O)(c2ccccc2)C2CCCCC2)o1 [Example 7, [2-((S)-Cyclohexyl-hydroxy-phenyl-methyl)-oxazol-5-ylmethyl]-dimethyl-(3-phenoxy-propyl)-ammonium bromide] | 1 to 10 |
| C[N+](C)(CCCOc1ccccc1)Cc1cnc([C@](O)(c2ccccc2)C2CCCCC2)o1 [Example 8, [2-((R)-Cyclohexyl-hydroxy-phenyl-methyl)-oxazol-5-ylmethyl]-dimethyl-(3-phenoxy-propyl)-ammonium bromide] | < 1 |
| CN(CCCOc1ccccc1)Cc1cnc(C(O)(c2ccccc2)C2CCCCC2)o1 (stereo not shown) [Example 13, Cyclohexyl-(5-{[methyl-(3-phenoxy-propyl)-amino]-methyl}-oxazol-2-yl)-phenyl-methanol] | 1 to 10 |
| OC(c1ccccc1)(c1ccccc1)c1ncc(CN2CCC(Oc3ccccc3)CC2)o1 [Example 26, [5-(4-Phenoxy-piperidin-1-ylmethyl)-oxazol-2-yl]-diphenyl-methanol] | > 10 |

| SMILES | Ki [nM] |
| --- | --- |
| CN(C)Cc1cnc(C(C)(c2ccccc2)c2ccccc2)o1 [Example 30, [2-(1,1-Diphenyl-ethyl)-oxazol-5-ylmethyl]-dimethyl-amine] | > 10 |
| C[N+](C)(CCc1ccccc1)Cc1cnc([C@@](O)(c2ccccc2)C2CCCCC2)o1 [Example 31, [2-((S)-Cyclohexyl-hydroxy-phenyl-methyl)-oxazol-5-ylmethyl]-dimethyl-phenethyl-ammonium bromide] | > 10 |
| C[N+](C)(CCc1ccccc1)Cc1cnc([C@](O)(c2ccccc2)C2CCCCC2)o1 [Example 32, [2-((R)-Cyclohexyl-hydroxy-phenyl-methyl)-oxazol-5-ylmethyl]-dimethyl-phenethyl-ammonium bromide] | < 1 |
| CC(C)=CCC[N+](C)(C)Cc1cnc([C@](O)(c2ccccc2)C2CCCCC2)o1 [Example 33, [2-((R)-Cyclohexyl-hydroxy-phenyl-methyl)-oxazol-5-ylmethyl]-dimethyl-(4-methyl-pent-3-enyl)-ammonium bromide] | < 1 |
| C[N+](C)(CCc1ccc2c(c1)CCO2)Cc1cnc([C@](O)(c2ccccc2)C2CCCCC2)o1 [Example 34, [2-((R)-Cyclohexyl-hydroxy-phenyl-methyl)-oxazol-5-ylmethyl]-[2-(2,3-dihydro-benzofuraan-5-yl)-ethyl]-dimethyl-ammonium bromide] | < 1 |
| Cc1cccc(C[N+](C)(C)Cc2cnc([C@](O)(c3ccccc3)C3CCCCC3)o2)n1 [Example 35, [2-((R)-cyclohexyl-hydroxy-phenyl-methyl)-oxazol-5-ylmethyl]-dimethyl-(6-methyl-pyridin-2-ylmethyl)-ammonium formate] | 1 to 10 |
| C[N+](C)(CCCOc1ccccc1)Cc1cnc([C@](O)(c2ccccc2)C2CCCC2)o1 [Example 37, [2-(Cyclopentyl-hydroxy-phenyl-methyl)-oxazol-5-ylmethyl]-dimethyl-(3-phenoxy-propyl)-ammonium bromide] | < 1 |
| O[C@](c1ccccc1)(c1ncc(C[N+]2(CCCOc3ccccc3)CCCCC2)o1)C1CCCCC1 [Example 38, 1-[2-(Cyclohexyl-hydroxy-phenyl-methyl)-oxazol-5-ylmethyl]-1-(3-phenoxy-propyl)-piperidinium bromide] | 1 to 10 |
| O[C@@](c1ccccc1)(c1ncc(C[N+]2(CCCOc3ccccc3)CCCCC2)o1)C1CCCCC1 [Example 39, 1-[2-(Cyclohexyl-hydroxy-phenyl-methyl)-oxazol-5-ylmethyl]-1-(3-phenoxy-propyl)-piperidinium bromide] | > 10 |
| O[C@](c1ccccc1)(c1ncc(C[N+]2(CCCOc3ccccc3)CCCC2)o1)C1CCCCC1 [Example 40, 1-[2-(Cyclohexyl-hydroxy-phenyl-methyl)-oxazol-5-ylmethyl]-1-(3-phenoxy-propyl)-pyrrolidinium bromide] | < 1 |
| O[C@@](c1ccccc1)(c1ncc(C[N+]2(CCCOc3ccccc3)CCCC2)o1)C1CCCCC1 [Example 41, 1-[2-(Cyclohexyl-hydroxy-phenyl-methyl)-oxazol-5-ylmethyl]-1-(3-phenoxy-propyl)-pyrrolidinium bromide] | > 10 |
| COCCCCCCCC[N+](C)(C)Cc1cnc([C@](O)(c2ccccc2)C2CCCCC2)o1 [Example 42, [2-((R)-Cyclohexyl-hydroxy-phenyl-methyl)-oxazol-5-ylmethyl]-(8-methoxy-octyl)-dimethyl-ammonium formate] | 1 to 10 |
| C[N+](C)(CCCCOc1ccccc1)Cc1cnc([C@](O)(c2ccccc2)C2CCCCC2)o1 [Example 43, [2-((R)-Cyclohexyl-hydroxy-phenyl-methyl)-oxazol-5-ylmethyl]-dimethyl-(4-phenoxy-butyl)-ammonium bromide] | < 1 |
| C[N+](C)(CCOCc1ccccc1)Cc1cnc([C@](O)(c2ccccc2)C2CCCCC2)o1 [Example 44, (2-Benzyloxy-ethyl)-[2-((R)-cyclohexyl-hydroxy-phenyl-methyl)-oxazol-5-ylmethyl]-dimethyl-ammonium bromide] | < 1 |
| C[N+](C)(CCCCc1ccccc1)Cc1cnc([C@](O)(c2ccccc2)C2CCCCC2)o1 [Example 45, [2-((R)-Cyclohexyl-hydroxy-phenyl-methyl)-oxazol-5-ylmethyl]-dimethyl-(4-phenyl-butyl)-ammonium bromide] | < 1 |
| C[N+](C)(CCCOc1ccc(F)cc1)Cc1cnc([C@](O)(c2ccccc2)C2CCCCC2)o1 [Example 46, [2-((R)-Cyclohexyl-hydroxy-phenyl-methyl)-oxazol-5-ylmethyl]-[3-(4-fluoro-phenoxy)-propyl]-dimethyl-ammonium bromide] | < 1 |
| CN(CCCCCCCC[N+](C)(C)Cc1cnc([C@](O)(c2ccccc2)C2CCCCC2)o1)C(=O)OC(C)(C)C [Example 47, [8-(tert-butoxycarbonyl-methyl-amino)-octyl]-[2-((R)-cyclohexyl-hydroxy-phenyl-methyl)-oxazol-5-ylmethyl]-dimethyl-ammonium methanesulfonate] | 1 to 10 |
| C[N+](C)(CCCc1ccccc1)Cc1cnc([C@](O)(c2ccccc2)C2CCCCC2)o1 [Example 48, [2-((R)-cyclohexyl-hydroxy-phenyl-methyl)-oxazol-5-ylmethyl]-dimethyl-(3-phenyl-propyl)-ammonium formate] | < 1 |
